Reference: patent publication US6084072A, “Purified lectin and methods of use” (The Regents of the University of Michigan, priority 1993, dated 2000)
Entries after “also recorded” stand apart in the source; their conditions may differ.

Experiments:
[1] = target: amaranthin (Amaranthus caudatus, UniProt Q71QF2); experiment: Hapten inhibition of amaranthin/asialo-ovine submaxillary mucin precipitation; type: binding; settings: for Relative Inhibition potency ACA: N-Acetylgalactosamine = 1
Procedure: Precipitation assays were conducted in 1.5 ml centrifuge tubes by the method of So and Goldstein. Indicated amounts of glycoprotein were added to 80 μg of amaranthin, and the total volume was adjusted to 250 μl with phosphate buffered saline. The tubes were incubated at 37° C. and then kept at 4° C. for 2 days. The precipitates were centrifuged, washed with cold Phosphate buffered saline, dissolved in 0.05 N NaOH and analyzed for protein by the method of Lowery et al. using bovine serum albumin as the standard. Hapten inhibition assays were carried out using 80 μg of amaranthin, 5 μg of asialo-ovine submaxillary mucins, and the indicated sugar concentrations. Inhibition was determined relative to the amount of precipitate formed in the control with no sugar added. All precipitation assays were conducted in duplicate to bring the tolerance within ±5% and the amount of precipitate formed average.

[2] = target: T1, PNA (Arachis hypogaea, UniProt P02872); experiment: Hapten inhibition of PNA/asialoglycophorin precipitation; type: binding; settings: for Relative Inhibition potency PNA: Galactose = 1, 40 μg PNA, 6 μg asialoglycophorin
T1 construct: purchased E.Y. Laboratories, San Mateo, Calif; (donated by Dr. A. Chu)
T1 sequence (P02872 24-273): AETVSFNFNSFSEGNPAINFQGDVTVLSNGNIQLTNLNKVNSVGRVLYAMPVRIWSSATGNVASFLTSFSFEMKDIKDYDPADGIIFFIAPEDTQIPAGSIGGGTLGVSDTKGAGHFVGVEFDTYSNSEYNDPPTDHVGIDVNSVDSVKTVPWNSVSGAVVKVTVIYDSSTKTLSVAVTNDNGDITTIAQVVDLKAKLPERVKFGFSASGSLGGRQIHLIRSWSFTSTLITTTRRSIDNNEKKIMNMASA
Procedure: Precipitation reactions with PNA were carried out similarly, except that 40 μg of PNA was used. Hapten inhibition studies with PNA used 40 μg of PNA, 6 μg of asialoglycophorin, and the indicated sugar concentrations.

Chain of amaranthin (Q71QF2 entry or part of it): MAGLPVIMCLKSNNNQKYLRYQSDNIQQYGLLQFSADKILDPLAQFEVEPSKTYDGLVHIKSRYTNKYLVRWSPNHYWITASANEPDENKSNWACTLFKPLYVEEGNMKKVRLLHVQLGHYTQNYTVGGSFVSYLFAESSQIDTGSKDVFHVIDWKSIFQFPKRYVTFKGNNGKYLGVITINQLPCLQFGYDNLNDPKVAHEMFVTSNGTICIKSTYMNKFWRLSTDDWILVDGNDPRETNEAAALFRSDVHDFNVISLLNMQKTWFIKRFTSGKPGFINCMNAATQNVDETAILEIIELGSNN

| SMILES | IC50 [1] [µM] | Relative Inhibition potency ACA [1] | further results |
| --- | --- | --- | --- |
| COC(=O)[C@H](CO[C@H]1O[C@H](CO)[C@H](O)[C@H](O)[C@H]1NC(C)=O)NC(=O)OCc1ccccc1 [3-O-(2-N-acetyl-α-D-galactopyranosyl-N-(benzyloxcarbonyl)-L-serinemethyl ester] | 53 | 15 |  |
| CO[C@H]1[C@@H](O)[C@@H](CO)O[C@@H](O[C@H]2[C@@H](O)[C@@H](CO)O[C@H](OCc3ccccc3)[C@@H]2NC(C)=O)[C@@H]1O [3-O-Methyl Galβ1,3GalNAcα-O-benzyl] | 2 | 395 | Relative Inhibition potency PNA [2]: < 10 |
| CC(=O)N[C@H]1[C@@H](OCc2ccccc2)O[C@H](CO)[C@H](O)[C@@H]1O[C@@H]1O[C@H](C)[C@H](O)[C@H](O)[C@H]1O [D-Fubcβ1,3GalNAcα-O-benzyl] | 1.9 | 416 | inhibition of amaranthin/AOSM precipitation, in words [1]: very good inhibitor; Relative Inhibition potency PNA [2]: 11 |
| C[C@H]1OC(O)[C@H](O)[C@@H](O)[C@H]1O (stereo partly drawn) [D-Fucose] |  | < 0.002 |  |
| CO[C@H]1O[C@H](CO)[C@H](O)[C@H](O[C@@H]2O[C@H](CO)[C@@H](O)[C@H](O)[C@H]2O)[C@H]1NC(C)=O [Gacβ1,3GalNAcα-O-CH3] | 36 | 22 | times less potent than Galβ1,3GalNAcα-O--CH3 ([1]; inhibitor of amaranthin): 10 |
| CC(=O)N[C@H]1[C@@H](O[C@H]2[C@@H](O)[C@@H](CO)OC(O)[C@@H]2O)O[C@H](CO)[C@H](O)[C@@H]1O (some centres unmarked) [GalNAcα1,3Gal] | 310 | 2.5 |  |
| CC(=O)N[C@H]1[C@@H](OC[C@H]2OC(O)[C@H](O)[C@@H](O)[C@H]2O)O[C@H](CO)[C@H](O)[C@@H]1O (some centres unmarked) [GalNAcα1,6Gal] | 210 | 3.8 |  |
| CC(=O)N[C@H]1[C@H](OC[C@H]2OC(O)[C@H](O)[C@@H](O)[C@H]2O)O[C@H](CO)[C@H](O)[C@@H]1O (some centres unmarked) [GalNAcβ1,6Gal] | 1000 | 0.8 |  |
| N[C@H]1C(O)O[C@H](CO)[C@H](O)[C@@H]1O (some centres unmarked) [Galactosamine] |  | < 0.002 | inhibition of amaranthin/AOSM precipitation, in words [1]: very poor inhibitors |
| OC[C@H]1OC(O)[C@H](O)[C@@H](O)[C@H]1O (some centres unmarked) [Galactose] |  | < 0.002 | inhibition of amaranthin/AOSM precipitation, in words [1]: very poor inhibitors; also recorded: not by galactose |
| OC[C@H]1O[C@H](OC[C@H]2OC(O)[C@H](O)[C@@H](O)[C@@H]2O)[C@H](O)[C@@H](O)[C@H]1O (some centres unmarked) [Galα1,6Glc] |  | < 0.008 |  |
| CC(=O)N[C@H]1CO[C@H](CO)[C@H](O)[C@@H]1O[C@@H]1O[C@H](CO)[C@H](O)[C@H](O)[C@H]1O [Galβ1,3(2-acetamido-2-deoxy-1,5-anhydrogalactitol)] | 5.8 | 136 | times less potent than Galβ1,3GalNAc ([1]; inhibitor of amaranthin): 1.7; Relative Inhibition potency PNA [2]: 14 |
| C=CCO[C@H]1O[C@H](CO)[C@H](O)[C@H](O[C@@H]2O[C@H](CO)[C@H](O)[C@H](O)[C@H]2O)[C@H]1NC(C)=O [Galβ1,3GalNAcα-O-CH2 CH = CH2] | 2.1 | 376 | fold more potent than the anomeric β-O-allyl glycoside ([1]; inhibitor of amaranthin): 16; Relative Inhibition potency PNA [2]: 38 |
| CO[C@H]1O[C@H](CO)[C@H](O)[C@H](O[C@@H]2O[C@H](CO)[C@H](O)[C@H](O)[C@H]2O)[C@H]1NC(C)=O [Galβ1,3GalNAcα-O-CH3] | 3.1 |  | Relative Inhibition potency PNA [2]: 47 |
| CC(=O)N[C@H]1[C@@H](Oc2ccccc2[N+](=O)[O-])O[C@H](CO)[C@H](O)[C@@H]1O[C@@H]1O[C@H](CO)[C@H](O)[C@H](O)[C@H]1O [Galβ1,3GalNAcα-O-o-nitrophenyl] | 2.1 | 376 |  |
| COC(=O)CCCCCCCCO[C@H]1O[C@H](CO)[C@H](O)[C@H](O[C@@H]2O[C@H](CO)[C@H](O)[C@H](O)[C@H]2O)[C@H]1NC(C)=O [Galβ1,3GalNAcαO(CH2)8 -CH-CH3] | 1.8 | 439 | Relative Inhibition potency PNA [2]: 47 |
| CO[C@@H]1O[C@H](CO)[C@H](O)[C@H](O[C@@H]2O[C@H](CO)[C@H](O)[C@H](O[C@@H]3O[C@H](CO)[C@H](O)[C@H](O)[C@H]3O)[C@H]2NC(C)=O)[C@H]1O [Galβ1,3GalNAcβ1,3Galβ-O--CH3] |  | < 0.08 | inhibition of amaranthin/AOSM precipitation, in words [1]: poor inhibitor; Relative Inhibition potency PNA [2]: 38 |
| C=CCO[C@@H]1O[C@H](CO)[C@H](O)[C@H](O[C@@H]2O[C@H](CO)[C@H](O)[C@H](O)[C@H]2O)[C@H]1NC(C)=O [Galβ1,3GalNAcβ-O-CH2 -CH = CH2] | 34 | 23 |  |

| SMILES | IC50 [1] [µM] | Relative Inhibition potency ACA [1] | further results |
| --- | --- | --- | --- |
| CO[C@H]1O[C@H](CO)[C@H](O)[C@H](O[C@@H]2O[C@H](CO)[C@H](O)[C@H](O)[C@H]2O)[C@H]1O [Galβ1,3Galα-O-CH3] |  | < 0.8 | inhibition of amaranthin/AOSM precipitation, in words [1]: very poor inhibitors; inhibition of PNA, in words [2]: rather good inhibitors; Relative Inhibition potency PNA [2]: 4.2 |
| CC(=O)N[C@H]1C(O)O[C@H](CO)[C@@H](O)[C@@H]1O[C@@H]1O[C@H](CO)[C@H](O)[C@H](O)[C@H]1O (some centres unmarked) [Galβ1,3GlcNAC] |  | < 0.08 | inhibition of amaranthin/AOSM precipitation, in words [1]: very poor inhibitor |
| C=CCO[C@@H]1O[C@H](CO)[C@@H](O)[C@H](O[C@@H]2O[C@H](CO)[C@H](O)[C@H](O)[C@H]2O)[C@H]1NC(C)=O [Galβ1,3GlcNAcβ-O-CH2 --CH--CH2] |  | < 0.08 |  |
| CC(=O)N[C@H]1[C@@H](OCc2ccccc2)O[C@H](CF)[C@H](O)[C@@H]1O[C@@H]1O[C@H](CO)[C@H](O)[C@H](O)[C@H]1O [Galβ1,3[6-F]GalNAcα-O-benzyl] | 1.7 | 465 | inhibition of amaranthin/AOSM precipitation, in words [1]: inhibition is equivalent to Galβ1,3GalNAca-O-benzyl |
| OC[C@H]1O[C@@H](O[C@H]2[C@H](O)[C@@H](O)C(O)O[C@@H]2CO)[C@H](O)[C@@H](O)[C@H]1O (some centres unmarked) [Galβ1,4Glc] |  | < 0.01 |  |
| CC(=O)N[C@H]1[C@H](O[C@H]2[C@@H](O)[C@@H](CF)O[C@H](OCc3ccccc3)[C@@H]2NC(C)=O)O[C@H](CO)[C@@H](O)[C@@H]1O [GlcNAcβ1,3[6-F]GalNAcα-O-benzyl] |  | < 0.08 |  |
| OC[C@H]1OC(O)[C@H](O)[C@@H](O)[C@@H]1O (some centres unmarked) [Glucose] |  | < 0.002 |  |
| CO[C@H]1O[C@H](CO)[C@H](O)[C@H](O)[C@H]1NC(=O)c1ccccc1 [Methyl (2-N-benzamido)-α-galactosaminide] | 850 | 0.9 |  |
| CO[C@H]1O[C@H](CO)[C@H](O)[C@H](O)[C@H]1NC(=O)c1ccc([N+](=O)[O-])cc1 [Methyl (2-N-p-nitrobenzamindo)-α-galactosaminide] | 140 | 5.6 |  |
| CO[C@H]1O[C@H](CO)[C@H](O)[C@H](O)[C@H]1OC(C)=O [Methyl (2-O-acetyl)-α-galactoside] | 2140 | 0.4 | times less potent than GalNAcα-O--CH3 ([1]; inhibitor of amaranthin): 8.6 |
| CO[C@H]1O[C@H](CO)[C@H](O)[C@H](O)[C@H]1OC(=O)c1ccc([N+](=O)[O-])cc1 [Methyl (2-O-p-nitrobenzoate)-α-galactoside] |  | < 0.1 |  |
| CO[C@@H]1C[C@@H](O)[C@@H](O)[C@@H](CO)O1 [Methyl (2-deoxy)-α-galactose] |  | < 0.08 |  |
| CO[C@H]1O[C@H](CO)[C@H](O)[C@H](O)[C@H]1NC(C)=O [Methyl N-acetyl-α-galactosaminide] | 250 | 3.2 | inhibition of amaranthin/AOSM precipitation, in words [1]: best monosaccharide inhibitor |
| CO[C@@H]1O[C@H](CO)[C@H](O)[C@H](O)[C@H]1NC(C)=O [Methyl N-acetyl-β-galactosaminide] | 11300 | 0.07 |  |
| COC(=O)CCCCCCCCO[C@H]1O[C@H](CO)[C@H](O)[C@H](O[C@@H]2O[C@H](CO)[C@H](O)[C@H](O[C@]3(C(=O)O)C[C@H](O)[C@@H](NC(C)=O)[C@H]([C@H](O)[C@H](O)CO)O3)[C@H]2O)[C@H]1NC(C)=O [NeuAcα2,3Galβ1,3GalNAcα-O-(CH2)8 --CO2 CH3] | 1.8 | 439 | inhibition of amaranthin/AOSM precipitation, in words [1]: does not decrease inhibitory potency |
| CC(=O)N[C@H]1[C@@H](Oc2ccc([N+](=O)[O-])cc2)O[C@H](CO)[C@H](O)[C@@H]1O [p-NitrophenylN-acetyl-α-galactosiminide] | 450 | 1.8 |  |
| CC(=O)N[C@H]1[C@H](Oc2ccc([N+](=O)[O-])cc2)O[C@H](CO)[C@H](O)[C@@H]1O [p-NitrophenylN-acetyl-β-Zgalactosaminide] |  | < 0.3 |  |
